This experiment has as its target T1, Androgen receptor (Homo sapiens, UniProt P10275).
T1 sequence (P10275 whole entry): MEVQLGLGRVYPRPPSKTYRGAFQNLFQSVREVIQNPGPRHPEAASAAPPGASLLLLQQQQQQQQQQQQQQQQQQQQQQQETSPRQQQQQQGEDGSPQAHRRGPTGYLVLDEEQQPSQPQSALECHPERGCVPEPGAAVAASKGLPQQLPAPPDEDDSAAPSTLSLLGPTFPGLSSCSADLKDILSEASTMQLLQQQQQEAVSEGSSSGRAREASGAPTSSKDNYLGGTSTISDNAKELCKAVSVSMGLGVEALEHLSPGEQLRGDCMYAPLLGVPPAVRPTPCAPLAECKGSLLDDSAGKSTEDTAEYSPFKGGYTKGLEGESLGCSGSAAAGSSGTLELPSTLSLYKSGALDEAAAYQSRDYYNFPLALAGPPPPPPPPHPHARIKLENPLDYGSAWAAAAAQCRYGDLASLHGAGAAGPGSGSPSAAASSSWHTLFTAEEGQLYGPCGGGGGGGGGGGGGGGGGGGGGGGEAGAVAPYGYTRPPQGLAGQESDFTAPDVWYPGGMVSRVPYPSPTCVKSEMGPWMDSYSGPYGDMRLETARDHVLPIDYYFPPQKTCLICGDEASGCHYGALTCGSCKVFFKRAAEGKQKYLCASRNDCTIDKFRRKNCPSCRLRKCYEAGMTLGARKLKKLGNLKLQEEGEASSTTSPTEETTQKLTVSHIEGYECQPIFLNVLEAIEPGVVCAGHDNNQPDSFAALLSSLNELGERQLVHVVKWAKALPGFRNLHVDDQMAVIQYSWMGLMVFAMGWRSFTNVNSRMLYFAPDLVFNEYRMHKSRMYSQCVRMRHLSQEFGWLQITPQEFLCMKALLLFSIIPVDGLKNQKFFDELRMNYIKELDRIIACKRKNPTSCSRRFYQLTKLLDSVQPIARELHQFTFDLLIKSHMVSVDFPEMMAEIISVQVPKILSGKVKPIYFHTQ
Nature of the experiment: Inhibition of [3H]mibolerone binding to human Androgen receptor of PC3/AR Cell Lysate.
For `CC1(C)C(=O)N(c2ccc(C#N)c(C(F)(F)F)c2)C(=O)N1OCCOCCOCCCc1ccc(O)c(C(N)=O)c1`, the IC50 came to 332 nM. This lies in the sub-micromolar range. The same measure for `CC1(C)C(=O)N(c2ccc(C#N)c(C(F)(F)F)c2)C(=O)N1OCC#CCCc1ccc(O)c(C(N)=O)c1`: 49 nM; for `COc1cccc2c1C(=O)c1c(O)c3c(c(O)c1C2=O)C[C@@](O)(C(=O)CO)CC3OC1C[C@H](NCNC(=O)c2cc(COCC#CCN3C(=O)N(c4ccc(C#N)c(C(F)(F)F)c4)C(=O)C3(C)C)ccc2O)[C@H](O)[C@H](C)O1` (some centres undefined): 90 nM.

As for `CCCC(=O)Oc1ccc(COCC#CCN2C(=O)N(c3ccc(C#N)c(C(F)(F)F)c3)C(=O)C2(C)C)cc1C(=O)NCN[C@H]1CC(OC2C[C@](O)(C(=O)CO)Cc3c(O)c4c(c(O)c32)C(=O)c2c(OC)cccc2C4=O)O[C@@H](C)[C@H]1O` (some centres undefined), the half-maximal inhibitory concentration (IC50) was determined as 63 nM.

The term IC50 denotes the concentration that gives 50% inhibition. Read a high IC50 as lower potency.

(Values after ChEMBL document CHEMBL1138810, “Studies of targeting and intracellular trafficking of an anti-androgen doxorubicin-formaldehyde conjugate in PC-3 prostate cancer cells bearing androgen receptor-GFP chimera” (J Med Chem, 2004).)
